According to ChEMBL document CHEMBL1201862, “PubChem BioAssay data set” (2004):
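Tested at 5 concentrations; 48 h exposure; 96-well plates; endpoints linearly interpolated, else capped at highest concentration. GI50 = concentration required for 50% inhibition of growth.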 Active and inactive are the calls of the source. Rule as the data show it: active = GI50 up to about 1.1 µM and inactive = higher.

What was measured:
Test in all cases: DTP human tumour cell line panel, 48 h
KM12 = system: KM12
OVCAR-3 = system: OVCAR-3
SR = system: SR
SK-MEL-2 = system: SK-MEL-2
PC-3 = system: PC-3
LOX IMVI = system: LOX IMVI
HOP-62 = system: HOP-62
M14 = system: M14
CCRF-CEM = system: CCRF-CEM
MCF7 = system: MCF7
HCT-116 = system: HCT-116
SF-295 = system: SF-295
A498 = system: A498
OVCAR-8 = system: OVCAR-8
UACC-257 = system: UACC-257
EKVX = system: EKVX
A549 = system: A549
K562 = system: K562
SF-539 = system: SF-539
SF-268 = system: SF-268

Row | Structure (SMILES) | GI50 (KM12) | GI50 (OVCAR-3) | GI50 (SR) | GI50 (SK-MEL-2) | GI50 (PC-3) | GI50 (LOX IMVI) | GI50 (HOP-62) | GI50 (M14) | GI50 (CCRF-CEM) | GI50 (MCF7) | GI50 (HCT-116) | GI50 (SF-295) | GI50 (A498) | GI50 (OVCAR-8) | GI50 (UACC-257) | GI50 (EKVX) | GI50 (A549) | GI50 (K562) | GI50 (SF-539) | GI50 (SF-268)
1 | COc1ncc(C=C(C#N)C#N)c(OC)n1 | 50 µM (inactive) | 57.9 µM (inactive) | 15.3 µM (inactive) | 32.3 µM (inactive) | 39.2 µM (inactive) | 30.2 µM (inactive) | 83.6 µM (inactive) | 18.7 µM (inactive) | 7.48 µM (inactive) | 36.7 µM (inactive) | 26.1 µM (inactive) | 85.5 µM (inactive) | > 100 µM (inactive) | 24.2 µM (inactive) | 22.1 µM (inactive) | 79.8 µM (inactive) | > 100 µM (inactive) | 38.6 µM (inactive) | 30.8 µM (inactive) | 61.8 µM (inactive)
2 | CCOC(=O)/C=C/C1=C(Br)[C@@]2(C)CC[C@@H]3c4ccc(O)cc4CC[C@H]3[C@@H]2C1 | 16.2 µM (inactive) | 7.94 µM (inactive) | 7.03 µM (inactive) | 14.9 µM (inactive) | 15.2 µM (inactive) | 7.08 µM (inactive) | 14.4 µM (inactive) | 11.7 µM (inactive) | 7.83 µM (inactive) | 13.6 µM (inactive) | 13.7 µM (inactive) | 15.8 µM (inactive) | 18.1 µM (inactive) |  | 13.9 µM (inactive) | 17.1 µM (inactive) | 16.9 µM (inactive) | 9.98 µM (inactive) | 17 µM (inactive) | 19 µM (inactive)
3 | O=[N+]([O-])c1ccc(N/N=C(\c2ccccc2)c2ccccn2)nc1 | 6.62 µM (inactive) | 0.409 µM (active) | 1.48 µM (inactive) | 14.8 µM (inactive) | 0.92 µM (active) |  | 8.57 µM (inactive) | 0.182 µM (active) | < 0.0218 µM (active) | < 0.0492 µM (active) | 0.21 µM (active) | 5.32 µM (inactive) | > 100 µM (inactive) | 0.914 µM (active) | 0.262 µM (active) | 0.171 µM (active) | 4.48 µM (inactive) |  | 1.52 µM (inactive) | 2.51 µM (inactive)
4 | Cc1cn(C2CC(O)C(COP(=O)(O)OC3CC(n4c[n+]([BH2-]C#N)c5c(=O)[nH]c(N)nc54)OC3CO)O2)c(=O)[nH]c1=O (configuration not stated) | > 100 µM (inactive) | > 100 µM (inactive) | > 100 µM (inactive) | > 100 µM (inactive) | > 100 µM (inactive) | > 100 µM (inactive) | > 100 µM (inactive) |  | > 100 µM (inactive) | > 100 µM (inactive) | > 100 µM (inactive) | > 100 µM (inactive) | > 100 µM (inactive) | > 100 µM (inactive) | > 100 µM (inactive) | > 100 µM (inactive) | > 100 µM (inactive) | > 100 µM (inactive) | > 100 µM (inactive) | > 100 µM (inactive)
5 | COc1c(C)c(OC)c2c(c1O)[C@@H]1[C@@H]3Cc4c(OC)c(C)c(OC)c(O)c4[C@H](CNC(=O)c4ccc5ccccc5n4)N3[C@@H](C#N)[C@H](C2)N1C | 0.000371 µM (active) | 0.000235 µM (active) | 0.000105 µM (active) | 0.000296 µM (active) | 0.00234 µM (active) | 0.00026 µM (active) | 0.00112 µM (active) | 0.000659 µM (active) |  | 0.000424 µM (active) | 0.000491 µM (active) | 0.0018 µM (active) | 0.000629 µM (active) | 0.00181 µM (active) | 0.00206 µM (active) | 0.000232 µM (active) | 0.00263 µM (active) | 0.000537 µM (active) | 0.0017 µM (active) | 0.000883 µM (active)
6 | O=C(c1ccccc1)N1CCC(Nc2cccnc2)O1 (configuration not stated) | > 100 µM (inactive) | > 100 µM (inactive) | > 100 µM (inactive) | > 100 µM (inactive) | > 100 µM (inactive) |  | > 100 µM (inactive) | > 100 µM (inactive) | > 100 µM (inactive) | > 100 µM (inactive) | > 100 µM (inactive) | > 100 µM (inactive) | > 100 µM (inactive) | > 100 µM (inactive) |  | > 100 µM (inactive) | > 100 µM (inactive) | > 100 µM (inactive) | > 100 µM (inactive) | > 100 µM (inactive)
7 | CCOC(=O)C(C(N)=O)C1=Nc2cc([N+](=O)[O-])ccc2N/C1=C\C(=O)c1ccccc1 (configuration not stated) | 12.1 µM (inactive) | 10.3 µM (inactive) | 3.3 µM (inactive) | 15.3 µM (inactive) | 15.5 µM (inactive) | 14.1 µM (inactive) | 10.9 µM (inactive) | 14.7 µM (inactive) |  | 12.4 µM (inactive) | 15 µM (inactive) | 16.7 µM (inactive) | 16.6 µM (inactive) | 16.4 µM (inactive) | 19.8 µM (inactive) | 20.6 µM (inactive) | 17.3 µM (inactive) | 3.82 µM (inactive) | 15.1 µM (inactive) | 12.7 µM (inactive)
